# In patent publication US7893027B2, “Treatment of ocular wounds and ulcers” (The Board of Regents of the University of Oklahoma, priority 2002, dated 2011):
# Columns and labels:
# Type in all cases: cell-based, human
# CAP37 mRNA in HCEC = assay: RT-PCR of CAP37 mRNA induction in HCEC
# Experimental: (§1) To determine if pro-inflammatory cytokines could induce CAP37 in HCEC and keratocytes we treated these cell cultures with TNF-α (0-10 ng/ml, Boehringer-Mannheim, Indianapolis, Ind.) and IL-1β (0-20 ng/ml, ENDOGEN, Woburn, Mass.) for 0-24 hr and assayed the cells immunocytochemically for the presence of CAP37 protein as described above. Untreated cell cultures were included for each test sample. In addition to protein detection, upregulation of CAP37 mRNA in response to TNF-α and IL-1β was measured by RT-PCR as described below.
# Cultured HCEC were treated with 5 ng/ml TNF-α and 10 ng/ml IL-1β for 0-8 hr at 37° C. Total cellular RNA was isolated from untreated and treated HCEC according to vendor specifications (TRIzol™, Gibco BRL). After reverse-transcription of 5 μg of total RNA by random oligonucleotide priming (hexanucleotide mix, BOEHRINGER-MANNHEIM, GmbH, Germany), the resulting single stranded cDNA was amplified by PCR (PERKIN ELMER 2400 thermocycler, Norwalk, Conn.) using CAP37 specific primers ([…] (SEQ ID NO:9) and […] (SEQ ID NO:10)) designed for a 597 bp internal fragment of HL60-CAP37 (34). The reaction conditions for reverse transcription were 80 units of RNAse inhibitor (SIGMA), 8 μl of 5× strand buffer, 2 μl of random hexanucleotide mix, 1 mM dNTPs (GIBCO BRL), 10 mM DTT (GIBCO BRL), and 400 units of M-MLV RT (GIBCO BRL) in a total volume of […]. The reaction mix was incubated at 37° C. for 50 min followed by incubation at 70° C. for 15 min. The PCR mix (1.5 mM MgCl2, 0.2 mM dNTPs, 1.26 μM of each primer and 1 unit Taq polymerase, GIBCO BRL) was amplified for 30 cycles. Amplified DNA fragments were separated by electrophoresis on a 1% agarose gel and visualized by exposure to UV after ethidium bromide (0.5 μg/ml) staining. To assess the integrity of the cDNA, primers for human β-actin were used.
# CAP37 protein in HCEC = assay: Immunocytochemical detection of CAP37 protein induction in HCEC; settings: for Time of maximum CAP37 protein induction: HCEC
# Experimental: (§2) For immunocytochemical analysis of HCEC and stromal keratocytes in culture, the cells were cultured on coverslips (CORNING COSTAR, Acton, Mass.) placed within 24-well tissue culture plates (CORNING COSTAR) until they reached 70% confluence and immunostained for CAP37 as described above except for the following changes. Cells were fixed in formol-acetone, pH 7.4 for 60 s at 4° C. (13) and were stained using the mouse anti-human CAP37 antiserum (1:500 dilution).
# as §1
# [1] = system: CAP37 protein in stromal keratocytes; assay: Immunocytochemical detection of CAP37 protein induction in stromal keratocytes
# Experimental: as §2, §1
# PECAM-1 (CD31) = assay: Flow cytometry of PECAM-1 expression on HCEC; settings: TNF-α control, after 12 hr
# Experimental: Flow cytometry was used to assess the upregulation of PECAM-1 (CD31), and the integrin molecules β1 (CD29), β2 (CD18), β3 (CD61), β4 (CD104), α1 (CD49a), α2 (CD49b), α3 (CD49c), α4 (CD 49d), and αv (CD51). Human corneal epithelial cells were cultured as above and treated with CAP37 (0-2000 ng/ml) for 0-72 hr. A corresponding culture was left untreated at each time point. Following treatment with CAP37, cells were detached with 0.25% trypsin in 1 mM EDTA (pH 7.4, FISHER SCIENTIFIC, Pittsburgh, Pa.), washed twice in PBS and fixed with 0.125% paraformaldehyde (J.T. BAKER, Phillipsburg, N.J.) overnight at 4° C. The cells were washed in PBS and then incubated in 0.5% normal goat serum and 0.5% bovine serum albumin (BSA) in PBS for 30 min to block non-specific binding sites. Cells were incubated in the primary antibody (at concentrations described below) at 4° C. for 1 hr followed by the secondary antibody (FITC-goat anti-mouse IgG, PHARMINGEN, San Diego, Calif.) at 0.5 μg/10^6 cells and incubated at 4° C. for 30 min. The isotype control for these studies was FITC-labeled mouse isotype IgG1 (PHARMINGEN). The cells were analyzed by flow cytometry (FACS Calibur, BECTON DICKINSON, San Jose, Calif.). At least ten thousand cells were analyzed for each sample. […]
substance,measurement,setting,value
IL-1β: proinflammatory cytokine used to induce CAP37,Initial expression of CAP37 mRNA post stimulation,CAP37 mRNA in HCEC; IL-1β 10 ng/ml,1 h
same,CAP37 mRNA,"CAP37 mRNA in HCEC; IL-1β 10 ng/ml, 6 hr",can be detected
same,Time of maximum CAP37 protein induction,CAP37 protein in HCEC,24 h
same,Time point at which expression of CAP37 protein was observed,CAP37 protein in HCEC; HCEC treated with IL-1β,4 h
same,Induction of CAP37 protein,[1],showed the induction of CAP37 protein
TNF-α,Duration of effect on PECAM-1 expression,PECAM-1 (CD31),"more sustained, lasting until 24 hr"
same,Earliest expression of CAP37 mRNA,CAP37 mRNA in HCEC; TNF-α 5 ng/ml,15 min
same,Time of maximum CAP37 mRNA levels,"CAP37 mRNA in HCEC; TNF-α 5 ng/ml, reduced by 4 hr",between 30 min and 2 hr
same,Time of maximum CAP37 protein induction,CAP37 protein in HCEC,24 h
same,Earliest detection of CAP37 protein,CAP37 protein in HCEC; HCEC treated with TNF-α,60 min
same,Induction of CAP37 protein,[1],showed the induction of CAP37 protein
